Experimental data from article PMC6609544 (British Journal of Pharmacology, 2019).
Positions count from the first letter of the chain named.

Tests used:
Kv12.1 (Elk1) = molecular target: T1, Kv12.1 (Elk1) (Homo sapiens, UniProt Q96L42); experiment: whole-cell patch clamp in transfected CHO cells; type: cell-based
T1 sequence (Q96L42 1-1107): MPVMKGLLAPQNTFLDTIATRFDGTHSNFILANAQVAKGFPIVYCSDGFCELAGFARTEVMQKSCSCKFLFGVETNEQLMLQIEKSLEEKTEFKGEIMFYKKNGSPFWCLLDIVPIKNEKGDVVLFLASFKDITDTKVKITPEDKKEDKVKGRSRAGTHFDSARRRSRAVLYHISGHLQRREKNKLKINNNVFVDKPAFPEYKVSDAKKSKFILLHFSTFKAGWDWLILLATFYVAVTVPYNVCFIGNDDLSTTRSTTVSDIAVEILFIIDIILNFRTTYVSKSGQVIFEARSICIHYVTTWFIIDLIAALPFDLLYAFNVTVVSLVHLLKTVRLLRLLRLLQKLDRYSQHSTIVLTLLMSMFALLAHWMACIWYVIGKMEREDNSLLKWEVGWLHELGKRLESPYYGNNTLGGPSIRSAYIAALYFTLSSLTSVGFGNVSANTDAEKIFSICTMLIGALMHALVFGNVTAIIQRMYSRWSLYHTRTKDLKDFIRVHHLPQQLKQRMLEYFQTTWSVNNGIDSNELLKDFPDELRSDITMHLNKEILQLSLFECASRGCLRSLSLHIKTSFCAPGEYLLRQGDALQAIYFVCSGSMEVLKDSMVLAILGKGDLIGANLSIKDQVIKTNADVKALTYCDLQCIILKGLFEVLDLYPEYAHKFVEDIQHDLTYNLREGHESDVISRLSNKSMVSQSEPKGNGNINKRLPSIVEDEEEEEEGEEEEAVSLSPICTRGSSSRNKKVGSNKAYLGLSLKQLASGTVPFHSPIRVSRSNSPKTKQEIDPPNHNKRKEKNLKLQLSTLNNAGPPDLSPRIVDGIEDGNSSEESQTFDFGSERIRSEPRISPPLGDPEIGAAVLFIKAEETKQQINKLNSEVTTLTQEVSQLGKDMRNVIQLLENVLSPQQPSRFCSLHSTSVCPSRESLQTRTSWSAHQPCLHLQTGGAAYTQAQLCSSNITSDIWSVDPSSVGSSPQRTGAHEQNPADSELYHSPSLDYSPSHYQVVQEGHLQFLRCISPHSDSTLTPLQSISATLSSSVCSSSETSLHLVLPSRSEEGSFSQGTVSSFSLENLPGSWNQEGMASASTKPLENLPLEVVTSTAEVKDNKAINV

Kv12.1(H462Y) = molecular target: T2, Kv12.1(H462Y) (Homo sapiens, UniProt Q96L42, H462Y); experiment: whole-cell patch clamp in transfected CHO cells; type: cell-based
T2 sequence (Q96L42 1-1107 H462Y): T1 sequence (Q96L42 1-1107) with H462Y

C=C[C@H]1C[N@@]2CC[C@H]1C[C@H]2[C@H](O)c1ccnc2ccc(OC)cc12 [quinine]
IC50 (Kv12.1 (Elk1)): 970 µM | IC50 (Kv12.1(H462Y)): 56 µM
